EC50 and IC90 data for 15 compounds are collected here from patent US20240228488A1 (TAKEDA PHARMACEUTICAL COMPANY LIMITED, priority 2021, published 2024).

Assay [1] deals with human activated kallikrein enzyme (Homo sapiens, UniProt P03952). Description: Plasma kallikrein inhibition, fluorogenic PFR-AMC substrate, 500 pM activated kallikrein format. The assay is classed as biochemical. The conditions noted are these: 500 pM activated kallikrein, 300 uM PFR-AMC, 30 min preincubation, 10 min reaction; read-out: Primary Dose Response Assay: Average EC50. In outline:
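High-enzyme format of the fluorogenic peptide assay, with EC50 taken from AMC signal: 500 pM activated kallikrein, 300 uM Pro-Phe-Arg-AMC, 30 min compound preincubation and 10 min reaction, all at room temperature, pH 7.5.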

For assay [2], the target named is T1, plasma kallikrein (Homo sapiens, UniProt P03952).
T1 construct: from tissue
Description: Neat human plasma assay, FXIIa contact pathway-activated, PFR-AMC substrate. In kind it is biochemical. As to conditions: citrated human plasma 78% final, 10 nM human FXIIa, 100 μM PFR-AMC; read-out: Human Plasma Assay: IC90. In outline:
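Compound inhibition of plasma kallikrein measured as PFR-AMC (100 μM) cleavage rate over 5 min at room temperature in 78% citrated human plasma activated with 10 nM FXIIa (Tris pH 7.5 buffer). IC50/IC90 from 4-parameter fit of rate versus inhibitor concentration.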

Some results are limits rather than exact numbers.

Sequence of human activated kallikrein enzyme (P03952 391-638 limits assumed): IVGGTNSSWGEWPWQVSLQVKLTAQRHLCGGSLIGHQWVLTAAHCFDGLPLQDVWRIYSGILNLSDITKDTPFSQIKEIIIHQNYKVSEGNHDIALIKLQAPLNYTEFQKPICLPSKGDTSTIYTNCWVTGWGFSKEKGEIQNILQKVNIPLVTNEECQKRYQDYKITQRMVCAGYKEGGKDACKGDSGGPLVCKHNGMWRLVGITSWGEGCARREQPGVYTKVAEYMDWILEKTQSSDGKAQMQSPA
Sequence of human activated kallikrein enzyme (P03952 20-390 partner limits assumed): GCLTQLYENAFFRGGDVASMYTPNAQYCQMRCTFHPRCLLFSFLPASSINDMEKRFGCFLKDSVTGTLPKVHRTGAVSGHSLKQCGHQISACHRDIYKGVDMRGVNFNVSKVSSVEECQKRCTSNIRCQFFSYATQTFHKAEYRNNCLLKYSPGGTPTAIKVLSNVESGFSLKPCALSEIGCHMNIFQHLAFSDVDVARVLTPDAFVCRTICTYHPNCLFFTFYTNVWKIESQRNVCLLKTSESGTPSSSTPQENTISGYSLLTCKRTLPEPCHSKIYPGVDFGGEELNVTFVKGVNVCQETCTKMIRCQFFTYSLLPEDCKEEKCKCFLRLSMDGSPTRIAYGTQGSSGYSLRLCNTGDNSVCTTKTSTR
T1 sequence (P03952 391-638 limits assumed): as the sequence (P03952 391-638 limits assumed) above
T1 sequence (P03952 20-390 partner limits assumed): as the sequence (P03952 20-390 partner limits assumed) above

The term EC50 denotes the concentration that produces a half-maximal response. The term IC90 denotes the concentration at which the effect reaches the 90% level. In the case of `Cc1ccnc([C@H]2C[C@@H]2C(=O)Nc2cc(NCc3cn4cc(C5CC5)cc(N5CC(=O)N(C6COC6)C5=O)c4n3)ncn2)n1` [Example 378, (1S,2S)-N-(6-(((6-cyclopropyl-8-(3-(oxetan-3-yl)-2,4-dioxoimidazolidin-1-yl)imidazo[1,2-a]pyridin-2-yl)methyl)amino)pyrimidin-4-yl)-2-(4-methylpyrimidin-2-yl)cyclopropane-1-carboxamide], the EC50 in assay [1] was under 1 nM. Further, in assay [2], the IC90 is under 400 nM.

For the compound `Cc1ccnc([C@H]2C[C@@H]2C(=O)Nc2cc(NCc3nc4c(N5CC(=O)N(C)C5=O)cc(C5CC5)cn4c3F)ncn2)n1` [Example 379, (1S,2S)-N-(6-(((6-cyclopropyl-3-fluoro-8-(3-methyl-2,4-dioxoimidazolidin-1-yl)imidazo[1,2-a]pyridin-2-yl)methyl)amino)pyrimidin-4-yl)-2-(4-methylpyrimidin-2-yl)cyclopropane-1-carboxamide], the EC50 in assay [1] is under 1 nM. Also, in assay [2], the IC90 is 400 to 1500 nM.

In the case of `Cc1ccnc([C@H]2C[C@@H]2C(=O)Nc2cc(NCc3cn4cc(C5CC5)ccc4n3)ncn2)n1` [Example 381, (1S,2S)-N-(6-(((6-cyclopropylimidazo[1,2-a]pyridin-2-yl)methyl)amino)pyrimidin-4-yl)-2-(4-methylpyrimidin-2-yl)cyclopropane-1-carboxamide], in assay [1], the EC50 is under 1 nM. Moreover, the concentration for an effect of 90% (IC90) in assay [2] fell in the range of 10000 to 48000 nM.

For the compound `COCCOCCN1C(=O)CN(c2cc(C3CC3)cn3cc(CNc4cc(NC(=O)[C@H]5C[C@@H]5c5nccc(C)n5)ncn4)nc23)C1=O` [Example 382, (1S,2S)-N-(6-(((6-cyclopropyl-8-(3-(2-(2-methoxyethoxy)ethyl)-2,4-dioxoimidazolidin-1-yl)imidazo[1,2-a]pyridin-2-yl)methyl)amino)pyrimidin-4-yl)-2-(4-methylpyrimidin-2-yl)cyclopropane-1-carboxamide], in assay [1], the 50% effective concentration (EC50) was under 1 nM. The IC90 in assay [2] is under 400 nM.

Regarding `CCN1CCN(c2cc(C3CC3)cn3cc(CNc4cc(NC(=O)[C@H]5C[C@@H]5c5nccc(C)n5)ncn4)nc23)CC1` [Example 383, (1S,2S)-N-(6-(((6-cyclopropyl-8-(4-ethylpiperazin-1-yl)imidazo[1,2-a]pyridin-2-yl)methyl)amino)pyrimidin-4-yl)-2-(4-methylpyrimidin-2-yl)cyclopropane-1-carboxamide], the EC50 in assay [1] was under 1 nM. Moreover, the IC90 in assay [2] was under 400 nM.

On to `Cc1ccnc([C@H]2C[C@@H]2C(=O)Nc2cc(NCc3cn4cc(C5CC5)cc(N5CC(=O)N(C6CC6)C5=O)c4n3)ncn2)n1` [Example 384, (1S,2S)-N-(6-(((6-cyclopropyl-8-(3-cyclopropyl-2,4-dioxoimidazolidin-1-yl)imidazo[1,2-a]pyridin-2-yl)methyl)amino)pyrimidin-4-yl)-2-(4-methylpyrimidin-2-yl)cyclopropane-1-carboxamide], for which the EC50 in assay [1] is under 1 nM. Also, the IC90 in assay [2] was under 400 nM.

With `CCN1C(=O)CN(c2cc(C3CC3)cn3cc(CNc4cc(NC(=O)[C@H]5C[C@@H]5c5nccc(C)n5)ncn4)nc23)C1=O` [Example 385, (1S,2S)-N-(6-(((6-cyclopropyl-8-(3-ethyl-2,4-dioxoimidazolidin-1-yl)imidazo[1,2-a]pyridin-2-yl)methyl)amino)pyrimidin-4-yl)-2-(4-methylpyrimidin-2-yl)cyclopropane-1-carboxamide], the concentration giving a half-maximal response (EC50) in assay [1] is under 1 nM. Besides, the IC90 in assay [2] was under 400 nM.

With `O=C(Nc1cc(NCc2cn3cc(C4CC4)cc(N4CCNC4=O)c3n2)ncn1)[C@H]1C[C@@H]1c1cc(Cl)ccn1` [Example 394, (1S,2S)-2-(4-chloropyridin-2-yl)-N-(6-(((6-cyclopropyl-8-(2-oxoimidazolidin-1-yl)imidazo[1,2-a]pyridin-2-yl)methyl)amino)pyrimidin-4-yl)cyclopropane-1-carboxamide], in assay [1], the EC50 is under 1 nM. In addition, the concentration for an effect of 90% (IC90) in assay [2] lay in the range of 400 to 1500 nM.

Consider `O=C1CN(c2cc(C3CC3)cn3cc(CNc4cc(NC(=O)[C@H]5C[C@@H]5c5cc(Cl)ccn5)ncn4)nc23)C(=O)N1` [Example 395, (1S,2S)-2-(4-chloropyridin-2-yl)-N-(6-(((6-cyclopropyl-8-(2,4-dioxoimidazolidin-1-yl)imidazo[1,2-a]pyridin-2-yl)methyl)amino)pyrimidin-4-yl)cyclopropane-1-carboxamide], for which the EC50 in assay [1] is under 1 nM. For the same compound, the IC90 in assay [2] is under 400 nM.

In the case of `O=C1CN(c2cc(C3CC3)cn3cc(CNc4cc(NC(=O)[C@H]5C[C@@H]5c5cccc(Cl)c5)ncn4)nc23)C(=O)N1` [Example 396, (1S,2S)-2-(3-chlorophenyl)-N-(6-(((6-cyclopropyl-8-(2,4-dioxoimidazolidin-1-yl)imidazo[1,2-a]pyridin-2-yl)methyl)amino)pyrimidin-4-yl)cyclopropane-1-carboxamide], the EC50 in assay [1] was under 1 nM. In addition, the IC90 in assay [2] fell in the range of 400 to 1500 nM.

As to `O=C(Nc1cc(NCc2cn3cc(C4CC4)cc(N4CC(=O)N(C5CC5)C4=O)c3n2)ncn1)[C@H]1C[C@@H]1c1cccc(Cl)c1` [Example 399, (1S,2S)-2-(3-chlorophenyl)-N-(6-(((6-cyclopropyl-8-(3-cyclopropyl-2,4-dioxoimidazolidin-1-yl)imidazo[1,2-a]pyridin-2-yl)methyl)amino)pyrimidin-4-yl)cyclopropane-1-carboxamide], the EC50 in assay [1] lay within 1 to 10 nM. Further, the IC90 in assay [2] was 1500 to 10000 nM.

Take `CN1C(=O)CN(Cc2cc(C3CC3)cn3cc(CNc4cc(NC(=O)[C@H]5C[C@@H]5c5cccc(Cl)c5)ncn4)nc23)C1=O` [Example 400, (1S,2S)-2-(3-chlorophenyl)-N-(6-(((6-cyclopropyl-8-((3-methyl-2,4-dioxoimidazolidin-1-yl)methyl)imidazo[1,2-a]pyridin-2-yl)methyl)amino)pyrimidin-4-yl)cyclopropane-1-carboxamide]: in assay [1], the concentration for a half-maximal effect (EC50) was 1 to 10 nM. Further, in assay [2], the IC90 lay in the range of 1500 to 10000 nM.

With `CN1CCC(O)(c2cc(C3CC3)cn3cc(CNc4cc(NC(=O)[C@H]5C[C@@H]5c5cccc(Cl)c5)ncn4)nc23)CC1` [Example 401, (1S,2S)-2-(3-chlorophenyl)-N-(6-(((6-cyclopropyl-8-(4-hydroxy-1-methylpiperidin-4-yl)imidazo[1,2-a]pyridin-2-yl)methyl)amino)pyrimidin-4-yl)cyclopropane-1-carboxamide], the EC50 in assay [1] is under 1 nM. The IC90 in assay [2] lay in the range of 400 to 1500 nM.

Regarding `CN1CC(F)(c2cc(C3CC3)cn3cc(CNc4cc(NC(=O)[C@H]5C[C@@H]5c5cccc(Cl)c5)ncn4)nc23)C1` [Example 402, (1S,2S)-2-(3-chlorophenyl)-N-(6-(((6-cyclopropyl-8-(3-fluoro-1-methylazetidin-3-yl)imidazo[1,2-a]pyridin-2-yl)methyl)amino)pyrimidin-4-yl)cyclopropane-1-carboxamide], in assay [1], the EC50 is under 1 nM. Moreover, the IC90 in assay [2] was 400 to 1500 nM.

Regarding `CN1CCC(F)(c2cc(C3CC3)cn3cc(CNc4cc(NC(=O)[C@H]5C[C@@H]5c5cccc(Cl)c5)ncn4)nc23)CC1` [Example 403, (1S,2S)-2-(3-chlorophenyl)-N-(6-(((6-cyclopropyl-8-(4-fluoro-1-methylpiperidin-4-yl)imidazo[1,2-a]pyridin-2-yl)methyl)amino)pyrimidin-4-yl)cyclopropane-1-carboxamide], the EC50 in assay [1] is under 1 nM. In addition, the concentration for an effect of 90% (IC90) in assay [2] lay in the range of 400 to 1500 nM.
